One molecule from patent US11147796B2, “Agent for preventing or ameliorating hearing impairment” (Tohoku University, priority 2017, dated 2021) can be followed below.

One assay has as its system “m.1555A>G mutant” cells. As to the kind of experiment: Cell survival level (MTT assay) of cisplatin- or gentamicin-treated cells. Conditions: 24 hours; for reduction of the cell survival level by gentamicin: gentamicin 2000 μM. It is filed as cell-based, human. As to the method: (§1) In the following Examples 2, 3, and 5, “m.1555A>G mutant” cells were obtained by skin reproductive to a patient having “m.1555A>G mutation” to obtain dermal fibroblasts, then 10% Primary culture was carried out in DMEM (low glucose) culture solution (manufactured by Nacalai Tesque, Inc) containing FBS (Fetal bovine serum) under the condition of 5% CO2/20% O2, at 37° C. and isolated. In the following Examples 4 and 5, the inner ear culture was carried out in DMEM (high glucose) culture medium containing 10% FBS (Fetal bovine serum) under the condition of 5% CO2/20% O2, at 37° C.
[1] 2000 cells of “m.1555A>G mutant” cells were plated per well in a 96-well cell culture plate and cultured for 24 hours.
[2] Cisplatin (manufactured by Yakult Corporation) or gentamicin (manufactured by Nacalai Tesque, Inc.) was mixed into the culture solution to be 100 μM and 2000 μM, respectively, and the compound #5 synthesized in Example 1 was mixed with various concentrations (1 and 10 μM), and cultured for 24 hours (cisplatin-treated group and gentamicin-treated group). As a control, “m.1555A>G mutant” cells were cultured in the absence of cisplatin (control group) or cisplatin-treated group in the absence of compound #5 (DMSO was added to 0.01%) for 24 hours. Cell survival level was measured by MTT assay using Cell Counting Kit-8 (manufactured by Dojindo laboratories). Specifically, 100 μL of Cell Count Reagent SF was added to each well, followed by incubation for 2 hours, and then stirred with a microplate reader for 3 seconds. Then the absorbance with 450 nm (reference 750 nm) was measured.
(In general: Formazan colour is commonly taken as a measure of viable cells.)

The next assay concerns inner hair cells. Briefly: Survival rate of inner hair cells in cultured inner ear with cisplatin. Type of assay: cell-based, C57BL/6J mouse. As to conditions: 48 hours. The method, then:
as §1
[1] The inner ear of C57BL/6J mouse (hereinafter referred to as “P3 mouse”) on the third day after birth was isolated and cultured in a culture solution for 24 hours.
[2] […] Thereafter, washing with TBS (TBST) solution containing 0.3% Triton X-100 for 5 minutes was repeated twice, followed by taking photograph with a fluorescence microscope (BZ-9000, manufactured by Keyence) and observed using BZ-H1 software (manufactured by Keyence). From the obtained image, the number of cells and the number of damaged cells, each of which has a shape of 200 μm each corresponding to each part of the apex turn, the media turn, and the basilar turn, were measured and 3 parts of the cochlea (apex, media, basilar) were calculated from the survival rate (%) of the outer hair cells and the inner hair cells. […]

A further assay relates to Ndufs 4 KO mice. Briefly: Hearing ability by auditory brainstem response (ABR) in Ndufs 4 KO mice. Type of assay: in vivo, mouse. Conditions: vs non-administration KO. The method, then:
Ndufs 4 KO mice (mutant mice due to the substitution of the second exon of the Ndufs 4 gene with Neo sandwiched between loxP sequences) were purchased from Jacson Laboratory. The genetic background of the mouse was C57BL/6, and 60 days old (body weight 10 to 13 g) was used. Compound #5 (1 mg/kg body weight/day) synthesized in Example 1 was orally administered to Ndufs 4 KO mice (administration group of Ndufs 4 KO mice, n=5), between 28 and 60 days of age, at 60 days of age, the hearing ability of the compound #5 administration group was evaluated by auditory brainstem response (ABR). As a control, the hearing ability of Nudfs 4 KO mice not received compound #5 (non-administration group of Ndufs 4 KO mice, n=4), wild type mice not received compound #5 (non-administration group of wild type mice, n=3) and Ndufs 4 hetero KO mice not received compound N #5 (non-administration group of Ndufs 4 hetero KO mice, n=4) was assessed by ABR at 60 days of age. In measuring the hearing ability, a mixture of ketamine (100 mg/kg body weight) and xylazine (20 mg/kg body weight) were anesthetized by intraperitoneal injection of mice. ABR was also analyzed using TDT System 3 workstation and BioSigRP software (Tucker-Davis Technologies). The averaging (1000 times) of the evoked response to the tone burst sound of each frequency (4, 8, 12, 16, and 32 kHz) was recorded. Stimuli sounds were presented at 5 dB intervals from each frequency, 100 dB SPL (Sound Pressure Level) to 10 dB SPL. […]
Using Ndufs 4 KO mice and their littermate wild type mice (littermate wild type mice), the hearing power of littermate wild type mice not received compound #5 (non-administration group of wild-type mice, n=5), Ndufs 4 KO mice not received compound #5 (non-administration group of Ndufs 4 KO mice, n=5) and Ndufs 4 KO mice received compound #5 (administration group of Ndufs 4 KO mice, n=5) were evaluated by ABR at 28 days of age and 60 days of age according to the method described in the item “6-1” of Example 6. […]

In assay [1] the test system is skin cells derived from hearing loss patients attributable to other inherited diseases. As to the kind of experiment: Amount of ATP production in skin cells of patients with other inherited diseases. Type of assay: cell-based, human. As to conditions: POU4F3 gene mutation, MELAS [m.3243A>G mutation], Alport syndrome.

In the case of `O=C(CC(C(=O)O)c1c[nH]c2ccccc12)c1ccc(F)cc1F` (stereo not drawn) [compound #5, 4-(2,4-Difluorophenyl)-2-(1H-indol-3-yl)-4-oxo-butanoic Acid], in the assay on “m.1555A>G mutant” cells (cisplatin 100 μM, compound 1 to 10 μM), the “decrease in cell survival level due to cisplatin treatment” value is on record as “significantly suppressed”. The entries for the “reduction of the cell survival level by gentamicin” value with “m.1555A>G mutant” cells (compound 10 μM) and with “m.1555A>G mutant” cells (compound at least 1 μM) were “significantly suppressed” and “suppressed”, respectively. Moreover, the “survival rate of the inner hair cells” value in the assay with inner hair cells (cisplatin 10 μM, compound 0, 1, 5, 10, 50 μM) is on record as “almost no change in survival rate”; in the assay on inner hair cells (compound 10 μM, cisplatin 0, 5, 7.5, 10, 15, 20 μM, vs DMSO-treated group), “hardly any difference”. In addition, the ABR threshold result with Ndufs 4 KO mice (Example 6, 1 mg/kg body weight/day oral, 28 to 60 days of age, measured at 60 days) was “lower than the ABR threshold in the non-administration group of Ndufs 4 KO mice”; in the assay on Ndufs 4 KO mice (Example 8, 0.3 mg/kg body weight/day oral) it was “decreased”. Also, the ABR threshold value result in the assay on Ndufs 4 KO mice (Example 7, 1 mg/kg body weight/day oral, at 60 days of age) was “decreased”. For the same molecule, the “amount of ATP production” value in assay [1] is on record as “confirmed”.
